Entries after “also recorded” stand apart in the source; their conditions may differ.
Assays:
MGE progenitor cells = assay: HD-DoE 12-factor experiment for stage 4 recipe, optimized for MEF2C; format: cell-based, human
Source text: These effectors are small molecules or proteins. They are commonly used during stepwise differentiation of stem cells to specific fates. The choice of the effectors was based on current literature on neural induction in forebrain region of developing brain and differentiation of stem cells to neural progenitors.
To evaluate the effectors, experiments with at least 8 factors were designed that can assess the response of cells to 48 or more different combinations of effectors in a range of concentrations. To analyze the models, we focused on expression of genes involved in development and patterning of the forebrain interneurons maturation including LHX6 (Yuan et al. (2018) Elife, 7:e37382), DLX5 (Wang et al. (2010) J. Neuroscience 30:5334-5345), ASCL1 (Shi et al. (2016) J. Biol. Chem. 291:13560-13570). At later stages we focused on interneuron maturation genes including Parvalbumin and absence of somatostatin (Horn and Nicoll (2018) Proc. Natl. Acad. Sci. 115:589-594). The impacts of each effector on gene expression level are defined by a parameter called factor contribution that is calculated for each effector during the modeling.
To identify the recipe of stage 4 of differentiation, 48 different combinations of effectors generated using Design-of-Experiments compression through D-optimality were robotically prepared. The effector combinations were prepared in a basal media and were subsequently added to the cells, which were then allowed to differentiate. Three days later RNA extraction was performed, and gene expression was obtained using quantitative PCR analysis. The data was normalized and modeled using partial least squares regression analysis to the effector design, resulting in the generation of gene-specific models, which after model tuning for maximal predictive power, provided explanation of the effectors ability to control the expression of individual genes, combinatorically, and individually. Solutions within the tested space could then be explored to address desirability. […] Valproic Acid can inhibit histone deaceylases and increase γ-aminobutyric acid (GABA). […] GDNF is the […] Glial cell line-derived neurotrophic factor and can activate the GDNF pathway.
To find the set of factors that have the potential to optimize MEF2C in this experiment, a new assessment was done through dynamic profile analysis with focus on maximal expression of MEF2C (FIG. 20).

[1] = test system: human pluripotent stem cells; assay: factor criticality analysis (dynamic profile analysis) of stage 1 recipe; format: cell-based; design: unit not given here; settings: other five factors present; for expression level of FEZF2 when the effector is removed: 2000 with all six factors; for expression level of SIX3 when the effector is removed: 3000 with all six factors; for expression level of OTX2 when the effector is removed: 5500 with all six factors
Experimental: To assess the impact of the elimination of each validated factor, dynamic profile analysis was used and compared the expression level of genes of interest in absence of each finalized factor while others are present.
In the stage 1 recipe, each of the six finalized factors were removed individually while the other five factors were present and expression levels of forebrain genes was assessed compared to the presence of all six factors together. The results are summarized in FIG. 11A-B. When LDN193189 was removed, expression levels of FEZF2, OTX2 and SIX3 were decreased drastically from 2000 to 1000, 5500 to 4000 and 3000 to 0, respectively. […] When Purmorphamine was removed, levels of FEZF2 and SIX3 were decreased to 1000 and below 3000, while levels of OTX2 increased to 6500.

[2] = test system: stage 2 neural stem cells (cells treated with stage 1 and stage 2 media); assay: HD-DoE experiment for stage 3 recipe, optimized for ASCL1; format: cell-based, human
Experimental: To further guide the cells to medial ganglionic eminence progenitor fate, an additional HD-DoE experiment was performed for 3 days on cells that were treated with stage 1 and stage 2 media for total of 6 days prior to start of the experiment. This experiment included 13 effectors, LDN193189, A8301, GNF5837, AZD3147, GSI-XX, Takinib, PD0325901, PD173074, BLU9931, IGF-1, MHY1485, Purmorphamine and Prostratin. In this model, we focused on maximum expression of genes expressed in neuronal progenitor cells in medial ganglionic eminence (MGE) region including ASCL1, LHX6 and DLX1 (Silberberg et al. (2016) Neuron 92:59-74). When the model was optimized for maximum expression of ASCL1 at 1700, A8301, GSI-XX, Purmorphamine and Takinib, which is an inhibitor of TAK1 pathway, had the highest factor contributions, 18.1, 14.1, 12.7 and 10.1 respectively. […]

[3] = test system: stage 2 neural stem cells; assay: factor criticality analysis (dynamic profile analysis) of stage 3 recipe; format: cell-based, human; design: unit not given here; settings: other five factors present
Experimental: To assess the impact of the elimination of each validated factor, dynamic profile analysis was used and compared the expression level of genes of interest in absence of each finalized factor while others are present. […] In the stage 3 recipe, each of the six finalized factors were removed while the other five factors remained present and the expression levels of ASCL1, DLX1 and LHX6 were assessed compared to the presence of all six factors. […] As expected, in the absence of IGF-1, the value of DLX1 increases to 410, however, ASCL1 and LHX6 decreased to 1390 and 220, respectively.

[4] = dynamic profile analysis, FIG. 10

## c1ccc2c(-c3cnn4cc(-c5ccc(N6CCNCC6)cc5)cnc34)ccnc2c1 [LDN193189]
MGE progenitor cells; dynamic profile analysis, FIG. 20
  impact on expression of MEF2C: negative effect
MGE progenitor cells; significant negative effect, model optimized for maximal expression of MEF2C
  factor contribution on expression of MEF2C: 11
[1]
  expression level of FEZF2 when the effector is removed: 1000
  expression level of SIX3 when the effector is removed: 0
  expression level of OTX2 when the effector is removed: 4000

## c1ccc2c(Oc3nc(Nc4ccc(N5CCOCC5)cc4)c4ncn(C5CCCCC5)c4n3)cccc2c1 [Purmorphamine]
[2]; [4]
  impact on expression of ASCL1: positive trends; also recorded: Positive impact
  impact on expression of DLX1: did not have a significant negative impact
  impact on expression of LHX6: positive trends; also recorded: Positive impact
[2]; positive, model optimized for maximum expression of ASCL1 at 1700, FIG. 9
  factor contribution on expression of ASCL1: 12.7
[1]
  expression level of FEZF2 when the effector is removed: 1000
  expression level of SIX3 when the effector is removed: below 3000
  expression level of OTX2 when the effector is removed: 6500
[3]; 220 with all six factors
  expression level of DLX1 when the effector is removed: stayed the same
[3]; 240 with all six factors
  expression level of LHX6 when the effector is removed: 190
[3]; 1650 with all six factors
  expression level of ASCL1 when the effector is removed: 1200
